Assay results reported in ChEMBL document CHEMBL1123172, “Inhibitors of dihydropteroate synthase: substituent effects in the side-chain aromatic ring of 6-[[3-(aryloxy)propyl]amino]-5-nitrosoisocytosines and synthesis and inhibitory potency of bridged 5-nitrosoisocytosine-p-aminobenzoic acid analogues” (J Med Chem, 1986).

Target: T1, Dihydropteroate synthase (Escherichia coli K-12, UniProt P0AC13)
T1 sequence (P0AC13 whole entry): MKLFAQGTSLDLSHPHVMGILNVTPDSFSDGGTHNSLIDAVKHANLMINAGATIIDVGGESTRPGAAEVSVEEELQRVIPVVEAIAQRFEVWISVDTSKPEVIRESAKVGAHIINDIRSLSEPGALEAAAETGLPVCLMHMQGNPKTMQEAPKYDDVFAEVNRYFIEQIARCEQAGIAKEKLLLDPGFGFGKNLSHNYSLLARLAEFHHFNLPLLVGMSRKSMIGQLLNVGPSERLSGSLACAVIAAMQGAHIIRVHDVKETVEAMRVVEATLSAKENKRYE
Test: In vitro concentration required to inhibit partially purified dihydropteroate synthase of Escherichia coli by 50%
Assay type: functional
Details: read-out: I50

Compound `COc1ccc(OCCCNc2nc(N)nc(O)c2N=O)cc1` has an IC50 of 7300 nM.

`Cc1ccc(S(=O)(=O)Nc2ccc(OCCCNc3nc(N)nc(O)c3N=O)cc2)cc1` showed an IC50 of 600 nM.

`CS(=O)(=O)c1ccc(OCCCNc2nc(N)nc(O)c2N=O)cc1` gave an IC50 of 2500 nM.

Work on `CCCCOc1ccc(OCCCNc2nc(N)nc(O)c2N=O)cc1` yielded an IC50 of 2100 nM.

Work on `Nc1nc(O)c(N=O)c(NCCCOc2ccc(C(F)(F)F)cc2)n1` yielded an IC50 of 1400 nM.

Work on `CCOC(=O)c1ccc(OCCCNc2nc(N)nc(O)c2N=O)cc1` yielded an IC50 of 2900 nM.

Work on `Nc1nc(O)c(N=O)c(NCCCOc2ccc([N+](=O)[O-])cc2)n1` yielded an IC50 of 1000 nM.

With `COc1cc(OC)cc(OCCCNc2nc(N)nc(O)c2N=O)c1` the IC50 was 700 nM.

`Nc1nc(O)c(N=O)c(NCCCOc2ccc(O)cc2)n1` showed an IC50 of 2200 nM.

For `CCOC(=O)c1ccc(NCCCCNc2nc(N)nc(O)c2N=O)cc1`, the IC50 was 3000 nM.

In the case of `Nc1nc(O)c(N=O)c(NCCCNc2ccc(C(=O)O)cc2)n1`, the IC50 is reported as 8900 nM.

Compound `Nc1nc(NCCCOc2ccc(C(=O)O)cc2)c(N=O)c(=O)[nH]1` has an IC50 of 6600 nM.

Work on `Nc1nc(O)c(N=O)c(NCCCOc2ccc(OCc3ccccc3)cc2)n1` yielded an IC50 of 3000 nM.

`COc1cc(OCCCNc2nc(N)nc(O)c2N=O)cc(OC)c1OC` gave an IC50 of 2000 nM.

Work on `Nc1nc(O)c(N=O)c(NCCCOc2ccccc2OCc2ccccc2)n1` yielded an IC50 of 18000 nM.

`Nc1nc(O)c(N=O)c(NCCCOc2cc(Cl)cc(Cl)c2)n1` showed an IC50 of 1400 nM.

In the case of `Nc1nc(O)c(N=O)c(NCCCCNc2ccc(C(=O)O)cc2)n1`, the IC50 is reported as 2500 nM.

`Nc1nc(O)c(N=O)c(NCCCOc2ccc(Cl)cc2)n1` was tested, and the IC50 was 1000 nM.
